Assay results as given in ChEMBL document CHEMBL3390842 (Medchemcomm, 2012).
The source made the active and inactive calls. The rule behind the calls is not given here.

Experiments:
[1] = biological target: T1, G-protein coupled receptor 35 (Homo sapiens, UniProt Q9HC97); format: cell-based, HT-29
[2] = biological target: T1, G-protein coupled receptor 35; format: cell-based, U2OS
[3] = biological target: T1, G-protein coupled receptor 35; assay: Agonist activity at GPR35 in human HT-29 cells assessed as induction of whole cell dynamic mass redistribution at 32 uM after 50 mins by resonant waveguide grating biosensor analysis in presence of GPR35 antagonist ML-145; format: cell-based
[4] = biological target: T1, G-protein coupled receptor 35; assay: Agonist activity at GPR35 in human HT-29 cells assessed as induction of whole cell dynamic mass redistribution at 128 uM after 50 mins by resonant waveguide grating biosensor analysis in presence of GPR35 antagonist ML-145; format: cell-based

T1 sequence (Q9HC97 whole entry): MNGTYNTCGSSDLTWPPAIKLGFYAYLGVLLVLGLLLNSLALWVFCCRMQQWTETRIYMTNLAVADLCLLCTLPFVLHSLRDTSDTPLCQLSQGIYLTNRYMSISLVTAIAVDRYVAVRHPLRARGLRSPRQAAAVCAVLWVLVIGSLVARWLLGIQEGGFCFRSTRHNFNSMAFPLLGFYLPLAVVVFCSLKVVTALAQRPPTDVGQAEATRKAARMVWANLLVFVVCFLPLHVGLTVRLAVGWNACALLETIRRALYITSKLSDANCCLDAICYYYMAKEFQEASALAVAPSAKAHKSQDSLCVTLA

Structure (SMILES) | EC50 [1] | EC50 [2] | Activity [3] | Activity [4]
CCN(CC)C(=O)/C(C#N)=C/c1cc(O)c(O)c([N+](=O)[O-])c1 [ENTACAPONE] | 5.66 µM | 65.6 µM |  | 
CC(=O)C(=Cc1cc(O)c(O)c([N+](=O)[O-])c1)C(C)=O [NITECAPONE] | 0.82 µM | 17.1 µM |  | 
O=[N+]([O-])c1cc(O)c(O)c([N+](=O)[O-])c1 |  |  | inactive | 
O=C(c1cc(O)c(O)c([N+](=O)[O-])c1)c1ccccc1F | 8.66 µM | 54.4 µM | Active | 
O=[N+]([O-])c1ccc(O)c([N+](=O)[O-])c1 |  |  |  | Active
